Assay results: patent US10702505B2, “Rifaximin” (CIPLA Limited, priority 2006, dated 2020)
Where two headings read alike, the source gives them in different places.

Legend:
Type in all cases: physicochemical
[1] = intrinsic dissolution of amorphous rifaximin against the α Form; settings: 37±0.5° C., 100 rpm
Description: Temperature: 37±0.5° C. Rotation speed: 100 rpm Particle size: Amorphous rifaximin—11 microns • α Form of rifaximin—13 microns

bulk density = test: bulk density
tapped density = test: tapped density
[2] = 15 minutes, 1000 ml 0.1M sodium dihydrogen phosphate monohydrate + 4.5 g sodium lauryl sulphate

intrinsic dissolution profile compared with α Form ([1]; 0.1M sodium dihydrogen phosphate monohydrate + sodium lauryl sulphate) | % Release [1, 2] [%] | % Release ([1]; 30 minutes, same medium) [%] | % Release ([1]; 45 minutes, same medium) [%] | % Release ([1]; 60 minutes, same medium) [%] | % Release ([1]; 120 minutes, same medium) [%] | % Release ([1]; 180 minutes, same medium) [%] | % Release ([1]; 240 minutes, same medium) [%] | % Release ([1]; 360 minutes, same medium) [%] | % Release ([1]; 480 minutes, same medium) [%] | % Release ([1]; 600 minutes, same medium) [%] | % Release ([1]; 720 minutes, same medium) [%] | % Release ([1]; 960 minutes, same medium) [%] | % Release ([1]; 1200 minutes, same medium) [%] | % Release ([1]; 1400 minutes, same medium) [%] | bulk density (bulk density) [g/mL] | tapped density (tapped density) [g/mL] | bulk density (bulk density; listed as α Form rifaximin) [g/mL] | tapped density (tapped density; listed as α Form rifaximin) [g/mL] | SMILES
better dissolution profile than α Form | 1.1 | 1.9 | 2.9 | 3.7 | 8.1 | 12.6 | 16.6 | 24.7 | 32.0 | 39.5 | 46.4 | 60.4 | 72.9 | 83.0 | 0.3 to 0.4 | 0.4 to 0.5 |  |  | CO[C@H]1/C=C/O[C@@]2(C)Oc3c(C)c(O)c4c(O)c(c5c(nc6cc(C)ccn65)c4c3C2=O)NC(=O)/C(C)=C\C=C\[C@H](C)[C@H](O)[C@@H](C)[C@@H](O)[C@@H](C)[C@H](OC(C)=O)[C@@H]1C [Amorphous Rifaximin, (2S,16Z,18E,20S,21S,22R,23R,24R,25S,26 S,27S,28E)-5,6,21,23,25-pentahydroxy-27-methoxy-2,4,11,16,20,22,24,26-octamethyl-2,7-(epoxypentadeca-[1,11,13]trienimino)benzofuro[4,5-e]pyrido[1,2-a]-benzimida-zole-1,15(2H)-dione,25-acetate]
 | 0.8 | 1.8 | 3.0 | 4.4 | 11.0 | 18.0 | 24.6 | 38.7 | 47.5 | 52.7 | 56.4 | 62.9 | 67.8 | 72.7 |  |  | 0.2 to 0.3 | 0.3 to 0.4 | CO[C@H]1/C=C/O[C@@]2(C)Oc3c(C)c(O)c4c(O)c(c5c(nc6cc(C)ccn65)c4c3C2=O)NC(=O)/C(C)=C\C=C\[C@H](C)[C@H](O)[C@@H](C)[C@@H](O)[C@@H](C)[C@H](OC(C)=O)[C@@H]1C [α Form of Rifaximin, (2S,16Z,18E,20S,21S,22R,23R,24R,25S,26 S,27S,28E)-5,6,21,23,25-pentahydroxy-27-methoxy-2,4,11,16,20,22,24,26-octamethyl-2,7-(epoxypentadeca-[1,11,13]trienimino)benzofuro[4,5-e]pyrido[1,2-a]-benzimida-zole-1,15(2H)-dione,25-acetate, reference compound]
